From patent US10457707B2, “Substituted urea depsipeptide analogs as activators of the CLPP endopeptidase” (priority 2015, dated 2019)
In brackets after ≈: the same amount, converted by molar mass. Like-named read-outs stand apart in the source and are kept apart here. *1 amine or outer side, *2 acyl side, *3 side chain or, on linkers, in order; H or OH if unused. Where a SMILES comes first, the peptide text is derived from it. Bridges are numbered along the chain shown (N, C = ends). [ ]: non-standard residue; d: D form. The star is where a group is joined. ξ: configuration not given here. Phe(3,5-F2) = N[C@@H](Cc1cc(F)cc(F)c1)C(=O)O; NH(4-OCF3-phenyl) = FC(F)(F)Oc1ccc(N*)cc1; ξPro(4S-Me) = C[C@@H]1CNC(C(=O)O)C1; ξPro(4R-Me) = C[C@H]1CNC(C(=O)O)C1; NH(4-Me-phenyl) = Cc1ccc(N*)cc1; aThr = C[C@H](O)[C@H](N)C(=O)O; X5 = O=C(C1COCCN1[*:1])[*:2]; ξPip = O=C(O)C1CCCCN1; CO = O=C([*:1])[*:2]; ξP = O=C(O)C1CCCN1

What was measured:
Type in all cases: cell-based
[1] = test system: Streptococcus pneumoniae, R6; experiment: Minimal inhibitory concentration assay; conditions: read-out: Minimal Inhibitory Concentrations S. pneumoniae R6
Description: It is understood, that in various aspects, the MIC is determined by a microbroth dilution method. […] In a still further aspect, the MIC is determined by a microbroth dilution method using Staphylococcus aureus, NRS70. […] In an even further aspect, the MIC is determined by a microbroth dilution method using Streptococcus pneumoniae, DAW27. […] In an even further aspect, the MIC is determined using Staphylococcus aureus, USA 300. In a still further aspect, the MIC is determined using Streptococcus pneumoniae, R6. In a further aspect, the MIC is determined using Staphylococcus aureus, USA 300 and compared to the MIC determined using Staphylococcus aureus, USA 300 wherein ClpP is inactivated, thus allowing confirmation that killing is via a ClpP-dependent pathway.
Two fold serial dilutions of test compound in 100 μL of the appropriate broth media were first prepared in 96-well round bottom microtiter plates (Nalgene Nunc International, Rochester, N.Y., USA). […] The plates were then incubated aerobically at 37° C. All strains were incubated overnight. After incubations, in all cases the MIC was recorded as the lowest concentration of drug that prevented bacterial growth. The bacterial strains for which MIC was determined as described in Table 4.

[2] = test system: Vero (kidney epithelial cells; ATCC CCL-81); experiment: Cytotoxicity assay (CellTiter-Glo cell viability, 72 hours)
Description: Cytotoxicity was determined by determining the effect of compounds on cell viability. Vero (kidney epithelial cells; ATCC CCL-81) monolayers were trypsinized and 5000 cells/well were seeded (10-15% confluency) into white-wall, flat bottom 96 well microwell plates (Corning) using enriched Dulbecco's Modified Eagle's Medium (Hyclone:DMEM/High Glucose) containing 10% Fetal Bovine Serum (ATCC-30-2020). Plates were incubated overnight at 37° C. in the presence of 5% CO2. Drug-free media was then replaced with media containing serial dilutions of test compound or DMSO carrier. After an additional 72 hours of incubation, viability was indirectly measured using the CellTiter-Glo® Luminescent Cell Viability (Promega) assay. Assay plates were read at peak emission wavelength of 560 nm using a EnVision® Multilabel Plate Reader (Perkin Elmer) or PHERAstar FS Multilabel reader (BMG, Cary, N.C.). […] USA, www.graphpad.com]. For each experiment, compounds were tested in duplicate. IC50 values presented are the range of two biologically independent experiments.

[3] = test system: Staphylococcus aureus, USA 300 wherein ClpP is inactivated; experiment: Minimal inhibitory concentration assay
How it was run: (§1)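 CLSI broth microdilution: two-fold compound dilutions from 200 μM final, ~10^5 cfu/mL inoculum, aerobic overnight incubation at 37 °C. MIC read visually as lowest concentration preventing growth; S. aureus USA 300 compared with its ClpP-inactivated counterpart to check ClpP dependence.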

[4] = test system: Staphylococcus aureus, USA 300; experiment: Minimal inhibitory concentration assay; conditions: USA300, read-out: Minimal Inhibitory Concentrations S. aureus USA 300
How it was run: as §1

[5] = test system: Streptococcus pyogenes, ATCC 700294; experiment: Minimal inhibitory concentration assay (microbroth dilution)
How it was run: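 CLSI broth microdilution: two-fold serial compound dilutions in appropriate broth, inoculated and incubated aerobically overnight at 37° C. MIC read visually as lowest concentration preventing bacterial growth.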

[6] = test system: Bacillus subtilis, ATCC 23857; experiment: as above
How it was run: as §1

[7] = test system: Staphylococcus aureus, ATCC 29213; experiment: as above; conditions: ATCC29213, read-out: Minimal Inhibitory Concentrations S. aureus ATCC 29213
How it was run: as §1

[8] = test system: Staphylococcus aureus, NRS70; experiment: as above
How it was run: as §1

[9] = Vero cells, 72 hours, growth inhibition, read-out: Cytotoxicity IC50
[10] = Streptococcus pyogenes, ATCC700294, read-out: Minimal Inhibitory Concentrations S. pyogenes ATCC 700294
[11] = Bacillus subtilis, ATCC23857, read-out: Minimal Inhibitory Concentrations B. subtilis ATCC 23857
[12] = Staphylococcus aureus, NRS70, read-out: Minimal Inhibitory Concentrations S. aureus NRS70

Row | Compound | MIC [1] | IC50 ([2]; African green monkey, 72 h) | Minimal Inhibitory Concentrations S. aureus USA 300 ΔClpP [3] | MIC [4] | MIC ([5]; Streptococcus pyogenes, ATCC700294; read-out: Minimal Inhibitory Concentrations S. pyogenes ATCC 700294) | MIC ([6]; Bacillus subtilis, ATCC23857; read-out: Minimal Inhibitory Concentrations B. subtilis ATCC 23857) | MIC [7] | MIC ([8]; Staphylococcus aureus, NRS70; read-out: Minimal Inhibitory Concentrations S. aureus NRS70) | IC50 [2, 9] | MIC [5, 10] | MIC [6, 11] | MIC [8, 12]
1 | C[C@H]1CC2C(=O)O[C@@H](C)[C@H](NC(=O)[C@H](Cc3cc(F)cc(F)c3)NC(=O)Nc3ccc(OC(F)(F)F)cc3)C(=O)N3CCCC3C(=O)N3CCOCC3C(=O)N[C@@H](C)C(=O)N2C1 (stereo partly drawn) [Compound 34, (S)-3-(3,5-difluorophenyl)-2-(3-(4-(trifluoromethoxy)phenyl)ureido)-N-((6aS,12S,13S,15aS,17S,21S,23aS)-13,17,21-trimethyl-6,11,15,20,23-pentaoxooctadecahydro-6H,11H,15H-[1,4]oxazino[3,4-i]dipyrrolo[2,1-c:2′,1′-l][1]oxa[4,7,10,13]tetraazacyclohexadecin-12-yl)propanamide] ({NH(4-OCF3-phenyl)-CO}-[Phe(3,5-F2)][aThr][ξP][X5]A[ξPro(4S-Me)]; ester 2-C) | 0.049 µM (≈ 0.0431 µg/mL) | 26 ± 2.6 µM | 50 µM | 0.05 µM (≈ 0.044 µg/mL) | 0.1 µM (≈ 0.088 µg/mL) | 0.02 µM (≈ 0.0176 µg/mL) | 0.05 µM (≈ 0.044 µg/mL) | 0.02 µM (≈ 0.0176 µg/mL) |  |  |  | 
2 | Cc1ccc(NC(=O)N[C@@H](Cc2cc(F)cc(F)c2)C(=O)N[C@@H]2C(=O)N3CCCC3C(=O)N3CCCCC3C(=O)N[C@@H](C)C(=O)N3C[C@H](C)CC3C(=O)O[C@H]2C)cc1 (stereo partly drawn) [Compound 39, (S)-3-(3,5-difluorophenyl)-2-(3-(p-tolyl)ureido)-N-((2R,6S,8aS,14aS,20S,21S,23aS)-2,6,21-trimethyl-5,8,14,19,23-pentaoxooctadecahydro-1H,5H,14H,19H-pyrido[2,1-i]dipyrrolo[2,1-c:2′,1′-l][1]oxa[4,7,10,13]tetraazacyclohexadecin-20-yl)propanamide] ({NH(4-Me-phenyl)-CO}-[Phe(3,5-F2)][aThr][ξP][ξPip]A[ξPro(4R-Me)]; ester 2-C) | 0.05 µM (≈ 0.0404 µg/mL) |  | 100 µM | 0.05 µM (≈ 0.0404 µg/mL) |  |  | 0.05 µM (≈ 0.0404 µg/mL) |  | 40 ± 4.1 µM | 0.2 µM (≈ 0.162 µg/mL) | 0.02 µM (≈ 0.0162 µg/mL) | 0.05 µM (≈ 0.0404 µg/mL)
3 | Cc1ccc(NC(=O)N[C@@H](Cc2ccccc2)C(=O)N[C@H]2COC(=O)C3C[C@H](C)CN3C(=O)[C@H](C)NC(=O)C3CCCCN3C(=O)C3CCCN3C2=O)cc1 (stereo partly drawn) [Compound 43, (S)—N-((2S,6S,8aS,14aS,20S,23aS)-2,6-dimethyl-5,8,14,19,23-pentaoxooctadecahydro-1H,5H,14H,19H-pyrido[2,1-i]dipyrrolo[2,1-c:2′,1′-l][1]oxa[4,7,10,13]tetraazacyclohexadecin-20-yl)-3-phenyl-2-(3-(p-tolyl)ureido)propanamide] | 0.2 µM (≈ 0.152 µg/mL) |  | >200 µM | 3.1 µM (≈ 2.35 µg/mL) |  |  | 1.6 µM (≈ 1.21 µg/mL) |  | 74.5 ± 8.8 µM | 0.8 µM (≈ 0.606 µg/mL) | 0.4 µM (≈ 0.303 µg/mL) | 1.6 µM (≈ 1.21 µg/mL)
4 | Cc1ccc(NC(=O)N[C@@H](Cc2cc(F)cc(F)c2)C(=O)N[C@H]2COC(=O)C3C[C@H](C)CN3C(=O)[C@H](C)NC(=O)C3CCCCN3C(=O)C3CCCN3C2=O)cc1 (stereo partly drawn) [Compound 45, (S)-3-(3,5-difluorophenyl)-N-((2S,6S,8aS,14aS,20S,23aS)-2,6-dimethyl-5,8,14,19,23-pentaoxooctadecahydro-1H,5H,14H,19H-pyrido[2,1-i]dipyrrolo[2,1-c:2′,1′-l][1]oxa[4,7,10,13]tetraazacyclohexadecin-20-yl)-2-(3-(p-tolyl)ureido)propanamide] | 0.1 µM (≈ 0.0794 µg/mL) |  | 100 µM | 0.4 µM (≈ 0.318 µg/mL) |  |  | 0.4 µM (≈ 0.318 µg/mL) |  | 56.8 ± 6.7 µM | 0.4 µM (≈ 0.318 µg/mL) |  | 0.2 to 0.4 µM (≈ 0.159 to 0.318 µg/mL)
